Where a name gives a salt, the structure may show the parent alone.
What was measured:
Type in all cases: cell-based
HTT mRNA [1] = assay: Splicing RT-qPCR assay (THP), Table 2A; conditions: Table 2A, THP; for AC50: HTT alternative junction (AJ) mRNA, read-out: HTT AJ (AC50, increase in alternative junction mRNA); for IC50: HTT canonical junction (CJ) mRNA, read-out: HTT CJ (IC50, decrease in canonical junction mRNA)
MYB mRNA [2] = assay: Gene panel canonical junction qPCR assay, decrease in CJ mRNA, Table 3; conditions: decrease in CJ mRNA levels, canonical junction qPCR, gene panel
Summary of the method: (§1)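 Cells: A673 or K562; 24 h compound exposure, 37 °C, 5% CO2; 11-pt 3-fold series from 10 uM final; DMSO ≤0.25%. Lysate → cDNA → qPCR with junction-spanning primers/probe for CJ transcript. ΔCt vs housekeeper, ΔΔCt vs DMSO, 2^(−ΔΔCt), % response, 4PL → IC50.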

HTT mRNA [3] = assay: as above; conditions: decrease in CJ mRNA levels, canonical junction qPCR, gene panel
Summary of the method: as §1

[4] = test system: SH-SY5Y (human neuroblastoma) cells; assay: Cell viability, Cell Titer Glo 2.0 assay; conditions: read-out: Viability SHSY5Y.3 GI50
Summary of the method: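 CellTiter-Glo 2.0 luminescence read-out after 72 h compound exposure (37 °C, 5% CO2); medium-only wells as blank. DMSO 0.1% final.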

MYB mRNA [5] = assay: Splicing RT-qPCR assay (THP), Table 2A; conditions: Table 2A, THP; for AC50: MYB alternative junction (AJ) mRNA, read-out: MYB AJ (AC50, increase in alternative junction mRNA); for IC50: MYB canonical junction (CJ) mRNA, read-out: MYB CJ (IC50, decrease in canonical junction mRNA)

SMILES | AC50 (HTT mRNA [1]) | IC50 (HTT mRNA [1]) | IC50 (MYB mRNA [2]) | IC50 (HTT mRNA [3]) | GI50 [4] | AC50 (MYB mRNA [5]) | IC50 (MYB mRNA [5])
Cn1cc2cc(NC(=O)c3ccc(N4CCC(NC5CC5)CC4)c4cn(C)nc34)cc(CN)c2n1 [Compound 813, N-[7-(aminomethyl)-2-methyl-indazol-5-yl]-4-[4-(cyclopropylamino)-1-piperidyl]-2-methyl-indazole-7-carboxamide] | > 10 µM | > 10 µM | 1 to 10 µM | > 10 µM | > 10 µM | 1 to 10 µM | 1 to 10 µM
COC(=O)NCc1cc(NC(=O)c2ccc(N3CCC(NC4CC4)CC3)c3cn(C)nc23)cc2cn(C)nc12 [Compound 814] | > 10 µM | > 10 µM | 0.1 to 1 µM | > 10 µM | 1 to 10 µM | 1 to 10 µM | 0.1 to 1 µM
Cn1cc2cc(NC(=O)c3ccc(N4CCC(N(C(=O)OC(C)(C)C)C5CC5)CC4)c4cn(C)nc34)cc(CN)c2n1 [Compound 815] | > 10 µM | > 10 µM | > 10 µM | > 10 µM | 1 to 10 µM | > 10 µM | > 10 µM
Cc1cn2cc(NC(=O)c3ccc(N4CCC(NC5CC5)CC4)c4cn(C)nc34)cc(CNS(C)(=O)=O)c2n1 [Compound 816, 4-[4-(cyclopropylamino)-1-piperidyl]-N-[8-(methanesulfonamidomethyl)-2-methyl-imidazo[1,2-a]pyridin-6-yl]-2-methyl-indazole-7-carboxamide] | > 10 µM | > 10 µM | 1 to 10 µM | > 10 µM | > 10 µM | 1 to 10 µM | 1 to 10 µM
CCNC1CCN(c2ccc(C(=O)Nc3cc(CNS(C)(=O)=O)c4nc(C)cn4c3)c3nn(C)cc23)CC1 [Compound 817, 4-[4-(ethylamino)-1-piperidyl]-N-[8-(methanesulfonamidomethyl)-2-methyl-imidazo[1,2-a]pyridin-6-yl]-2-methyl-indazole-7-carboxamide] | > 10 µM | > 10 µM | 1 to 10 µM | > 10 µM | > 10 µM | 1 to 10 µM | 1 to 10 µM
Cn1cc2cc(NC(=O)c3ccc(N4CCC(NC5CC5)CC4)c4cn(C)nc34)cc(CN3CCCS3(=O)=O)c2n1 [Compound 818, 4-(4-(cyclopropylamino)piperidin-1-yl)-N-(7-((1,1-dioxidoisothiazolidin-2-yl)methyl)-2-methyl-2H-indazol-5-yl)-2-methyl-2H-indazole-7-carboxamide hydrochloride] | > 10 µM | > 10 µM | > 10 µM | > 10 µM | > 10 µM | > 10 µM | > 10 µM
COc1c(NC(=O)c2ccc(N3CCC(NC4CC4)CC3)c3cn(C)nc23)cc2cn(C)nc2c1CNS(C)(=O)=O [Compound 819] | 1 to 10 µM | 1 to 10 µM | 1 to 10 µM | 1 to 10 µM | 1 to 10 µM | 1 to 10 µM | 1 to 10 µM
CCNC1CCN(c2ccc(C(=O)Nc3cc(CN4CCCC4=O)c4nn(C)cc4c3)c3nn(C)cc23)CC1 [Compound 820, 4-[4-(ethylamino)-1-piperidyl]-2-methyl-N-[2-methyl-7-[(2-oxopyrrolidin-1-yl)methyl]indazol-5-yl]indazole-7-carboxamide] | > 10 µM | > 10 µM | 1 to 10 µM | > 10 µM | > 10 µM | > 10 µM | 1 to 10 µM
COc1cc2c(N3CCC(NC4CC4)CC3)ccc(C(=O)Nc3cc(CNS(C)(=O)=O)c4nn(C)cc4c3)n2n1 [Compound 821] | > 10 µM | 1 to 10 µM | 0.1 to 1 µM | 1 to 10 µM | 1 to 10 µM | 0.1 to 1 µM | 0.1 to 1 µM
Cc1cc2c(N3CCC(NC4CC4)CC3)ccc(C(=O)Nc3cc(CNS(C)(=O)=O)c4nn(C)cc4c3)n2n1 [Compound 822] | > 10 µM | > 10 µM | 0.1 to 1 µM | > 10 µM | 0.1 to 1 µM | 0.1 to 1 µM | 0.1 to 1 µM
Cn1cc2cc(NC(=O)c3ccc(N4CCC(NC5CC5)CC4)c4cn(C)nc34)cc(Cn3ccnn3)c2n1 [Compound 823] | > 10 µM | > 10 µM | 1 to 10 µM | > 10 µM | 1 to 10 µM | 0.1 to 1 µM | 1 to 10 µM
Cn1cc2cc(NC(=O)c3ccc(N4CCC(NC5CC5)CC4)c4cn(C)nc34)cc(Cn3nccn3)c2n1 [Compound 824] | > 10 µM | > 10 µM | 1 to 10 µM | > 10 µM | 1 to 10 µM | 1 to 10 µM | 1 to 10 µM
CNC1CCN(c2ccc(C(=O)Nc3cn4cc(C)nc(CNS(C)(=O)=O)c4n3)c3nn(C)cc23)CC1 [Compound 825] | > 10 µM | > 10 µM | 1 to 10 µM | > 10 µM | > 10 µM | 1 to 10 µM | 1 to 10 µM
Cc1cn2cc(NC(=O)c3ccc(N4CCC5(CCCN5)CC4)c4cn(C)nc34)nc2c(CNS(C)(=O)=O)n1 [Compound 826] | > 10 µM | > 10 µM | > 10 µM | > 10 µM | > 10 µM | > 10 µM | > 10 µM
Cc1cn2cc(NC(=O)c3ccc(N4CCC(NC5CC5)CC4)c4cn(C)nc34)nc2c(CNC(N)=O)n1 [Compound 829] | > 10 µM | > 10 µM | > 10 µM | > 10 µM | > 10 µM | > 10 µM | > 10 µM
Cc1cn2cc(NC(=O)c3ccc(N4CCC(NC5CC5)CC4)c4cn(C)nc34)nc2c(Cn2cnc3c(N)ncnc32)n1 [Compound 830] | > 10 µM | > 10 µM | > 10 µM | > 10 µM | > 10 µM | > 10 µM | > 10 µM
Cc1cn2cc(NC(=O)c3ccc(N4CCC(NC5CC5)CC4)c4cn(C)nc34)nc2c(Cn2cnc3ncnc(N)c32)n1 [Compound 831] | 0.1 to 1 µM | 0.1 to 1 µM | 0.1 to 1 µM | 0.1 to 1 µM | 0.1 to 1 µM | 0.1 to 1 µM | 0.1 to 1 µM
CNS(=O)(=O)CCc1nc(C)cn2cc(NC(=O)c3ccc(N4CCC(NC5CC5)CC4)c4cn(C)nc34)nc12 [Compound 832] | 1 to 10 µM | 1 to 10 µM | 1 to 10 µM | 1 to 10 µM | 1 to 10 µM | 1 to 10 µM | 1 to 10 µM
C=CCNC1CCN(c2ccc(C(=O)Nc3cc(CNC(=O)OC)c4nn(C)cc4c3)c3nn(C)cc23)CC1 [Compound 833] | 1 to 10 µM | 1 to 10 µM | 0.1 to 1 µM | 1 to 10 µM | 1 to 10 µM | 0.1 to 1 µM | 0.1 to 1 µM
Cn1cc2cc(NC(=O)c3ccc(N4CCC(NC5CC5)CC4)c4cn(C)nc34)cc(CNC3(C)COC3)c2n1 [Compound 834] | > 10 µM | > 10 µM | > 10 µM | > 10 µM | > 10 µM | > 10 µM | > 10 µM
C=CCNC1CCN(c2ccc(C(=O)Nc3cc(CNC4(C)COC4)c4nn(C)cc4c3)c3nn(C)cc23)CC1 [Compound 835] | > 10 µM | > 10 µM | > 10 µM | > 10 µM | > 10 µM | > 10 µM | > 10 µM
C=CCNC1CCN(c2ccc(C(=O)Nc3cc(CNS(C)(=O)=O)c4nc(C)cn4c3)c3nn(C)cc23)CC1 [Compound 836, 4-[4-(allylamino)-1-piperidyl]-N-[8-(methanesulfonamidomethyl)-2-methyl-imidazo[1,2-a]pyridin-6-yl]-2-methyl-indazole-7-carboxamide] | > 10 µM | > 10 µM | 0.1 to 1 µM | > 10 µM | 1 to 10 µM | 0.1 to 1 µM | 0.1 to 1 µM
Cc1cn2cc(NC(=O)c3ccc(N4CCC(NC5CC5)CC4)c4cn(C)nc34)nc(CNS(C)(=O)=O)c2n1 [Compound 837, 4-[4-(cyclopropylamino)-1-piperidyl]-N-[8-(methanesulfonamidomethyl)-2-methyl-imidazo[1,2-a]pyrazin-6-yl]-2-methyl-indazole-7-carboxamide] | 1 to 10 µM | 1 to 10 µM | < 0.1 µM | 1 to 10 µM | 0.1 to 1 µM | < 0.1 µM | < 0.1 µM
COc1cc2c(N3CCC(NC4CC4)CC3)ccc(C(=O)Nc3cc(CNS(C)(=O)=O)c4nc(C)cn4c3)n2n1 [Compound 838] | > 10 µM | > 10 µM | 1 to 10 µM | > 10 µM | 1 to 10 µM | 1 to 10 µM | 1 to 10 µM
Cc1cn2c(N3CCC(NC4CC4)CC3)ccc(C(=O)Nc3cc(CNS(C)(=O)=O)c4nn(C)cc4c3)c2n1 [Compound 839] | 1 to 10 µM | 1 to 10 µM | 0.1 to 1 µM | 1 to 10 µM | 1 to 10 µM | 0.1 to 1 µM | 0.1 to 1 µM

From patent publication US20260285853A1, “COMPOUNDS AND METHODS FOR MODULATING SPLICING” (REMIX THERAPEUTICS INC., priority 2023, published 2026)
